Data set [1] relates to MCF-7 human breast cancer. As to the kind of experiment: Human cytotoxicity (MTT) assay. The format is cell-based. To be noted: for % Inh. MCF-7: after 72 hours, Conc. 200 µM. How it is done: (§1) This Example describes human cytotoxicity of individual SMs. […] Three cancer cell lines (NCI-H460 human non-small cell lung cancer, SF-268 human central nervous system glioma, and MCF-7 human breast cancer) were used that are routinely use as “sentinels” (if a compound is cytotoxic, then at least one of these are usually killed). HFF cells (human foreskin normal cells, not cancer cells) was also used as a “control”.
(§2) Tested concentrations of these SMs increased at 50, 100 uM, then at 200 uM (Table 7).

Data set [2] concerns HFF cells (human foreskin normal cells). As to the kind of experiment: Human cytotoxicity (MTT) assay. The note with it: after 72 hours; for % Inh. HFF: Conc. 200 µM. The format is cell-based. How it is done:
as §1, §2

Data set [3] has as its system SF-268 human central nervous system glioma. As to the kind of experiment: Human cytotoxicity (MTT) assay. The format is cell-based. To be noted: for % Inh. SF-268: after 72 hours, Conc. 200 µM. How it is done: as §1, §2
The subject of the next data set is Meloidogyne incognita. As to the kind of experiment: In vitro nematicidal/nematistatic assay on the infective stage (J2 juveniles) of the root-knot nematode. Format: in vivo. To be noted: for Concentration at which nematicidal activity was observed: observational data; for EC50 / LC50: Meloidogyne incognita. Here is the method:
(§3) Time points for observations were at 24, 48, and 72 h after initial exposure of each SM against J2 juveniles of M. incognita and T. semipenetrans under in vitro conditions.
(§4) After assessments of individual SM toxicity, the combined toxic effects of these SMs was assayed in order to understand interaction between each SM. […] In addition, the additive index values were calculated and indicated in each Table.
(§5) When analyzing the results of combination effects of the SMs, the statistical method described by DeLorenzo and Serrano (2003) was used as follows: S=(Am/Ai)+(Bm/Bi). Where: S=sum of biological activity or total toxicant unit (TTU); Am=LC50 for compound A in the mixture; Ai=LC50 for compound A in the individual effect; Bm=LC50 for compound B in the mixture; Bi=LC50 for compound B in the individual effect. S values will be used to calculate an additive index. If S≤1.0, then the additive index=(1/S)−1.0.

Data set [4] has as its system NCI-H460 human non-small cell lung cancer. Nature of the data set: Human cytotoxicity (MTT) assay. The note with it: for % Inh. NCI-H460: Conc. 200 µM. The format is cell-based. Here is the method: as §1, §2
A further data set concerns Steinernema carpocapsae. Nature of the data set: whole plant or invertebrate. How it is done:
(§6) Laboratory assays were carried out to assess the nematicidal activity of the above-mentioned secondary metabolites (SMs) on the infective stage (i.e. the one that infects the roots of plants) of: 1) the root-knot nematode, (M. incognita); and 2) the citrus nematode (T semipenetrans). The effect of these SMs on five beneficial soil nematode species microbivores and those involved in nutrient cycling) was also tested to make sure these compounds only affect plant parasites (only for individual SM experiments).
(§7) Five non-target nematode species includes:
(§8) three entomopathogenic species: Steinernema carpocapsae, H bacteriophora, and H sonorensis.
(§9) The susceptibility of test population to these SMs was assessed by constructing a dosage-mortality curve in which the dosage was plotted against the percentage mortality at a given period of time (FIGS. 1-3).
Concentration-response data for each concentration of single Photorhabdus-derived SMs and the mixtures were pooled and subjected to Probit regression analysis using the Polo Plus program (LeOra software, Petaluma, Calif.). The LC or EC values, along with corresponding 95% confidence intervals, were estimated for each single SM and SM mixture at each exposure time, depending on the experimental setting. […]

In the next data set the test system is H. sonorensis. Nature of the data set: animal or person. The note with it: read-out: EC50 (effective concentration causing 50% reversible nematode paralysis, temporary quiescence). How it is done:
as §6, §7, §8, §9
(§10) Concentration-response data for each concentration of single Photorhabdus-derived SMs and the mixtures were pooled and subjected to Probit regression analysis using the Polo Plus program (LeOra software, Petaluma, Calif.). The LC or EC values, along with corresponding 95% confidence intervals, were estimated for each single SM and SM mixture at each exposure time, depending on the experimental setting. Statistically significant differences in LC or EC values among SMs at a given exposure time period within or among nematode species were interpreted based on non-overlapping of 95% confidence intervals. For the toxicity data visualization, the relationship between percent mortality or temporary quiescence and concentration was described by a sigmoidal curve, which is fitted by the logistical function, using the statistical software package Sigmaplot for Windows, version 14.0 (Systat Software Inc., San Jose, Calif., USA).

A further data set relates to H. bacteriophora. Nature of the data set: whole plant or invertebrate. To be noted: Heterorhabditis bacteriophora, read-out: EC50 (effective concentration causing 50% reversible nematode paralysis, temporary quiescence). How it is done: as §6, §7, §8, §9, §10
In data set [5] the test system is Tylenchulus semipenetrans. As to the kind of experiment: In vitro nematicidal/nematistatic assay on the infective stage (J2 juveniles) of the citrus nematode. The format is in vivo. The note with it: for Concentration at which nematicidal activity was observed: observational data; for EC50 / LC50: Tylenchulus semipenetrans. Here is the method: as §3, §4, §5
Another data set concerns Caenorhabditis elegans. As to the kind of experiment: whole plant or invertebrate. Here is the method: as §6, §7
(§11) two free-living bacterivores: Caenorhabditis elegans and Rhabditis blumi.
as §9, §10

Another data set has as its system Rhabditis blumi. As to the kind of experiment: whole plant or invertebrate. Here is the method: as §6, §7, §11, §9, §10
The next data set can be described thus: in vitro. How it is done:
as §6, §7, §8, §9, §10

The mark [6] stands for this setting: M. incognita, in vitro, 24 h exposure.
Setting [7] is: read-out: LC50 (lethal concentration causing 50% nematode death), Table 5: individual compounds or compound mixtures, J2 juveniles of M. incognita, in vitro.
Setting [8] is: T. semipenetrans, in vitro, 24 h exposure.
Setting [9] is: read-out: LC50 (lethal concentration causing 50% nematode death), Table 6: individual compounds or compound mixtures, J2 juveniles of T. semipenetrans, in vitro.

Results on 4 compounds are retold here after patent US20220272975A1, “COMPOSITIONS AND METHODS FOR TREATING PLANT PARASITES” (Arizona Board Regents on Bealf of the University of Arizona, priority 2019, published 2022).

≈ marks a conversion by molar mass, not a printed value. Read-outs that look alike come from different tables or passages of the source. Marks after values point to notes of the source that are not given here.

As to `O=C(O)/C=C/c1ccccc1` [TCA, trans-cinnamic acid], in data set [1], the “% Inh. MCF-7” value is given as 2.59%. Besides, in [2], the “% Inh. HFF” value was found to be 10.8%. The “% Inh. SF-268” value in data set [3] is 13.0%.

Regarding `c1ccc2[nH]ccc2c1` [ID, indole], the “Concentration at which nematistatic activity (reversible quiescence) was induced” value in the data set on Meloidogyne incognita (M. incognita) was over 40 µg/mL; in [5] (T. semipenetrans) it was over 10 µg/mL. For the same compound, the “EC50 (effective concentration causing 50% reversible nematode paralysis, temporary quiescence)” value with Meloidogyne incognita (setting [6]) is recorded as 56.3 (52.9-59.6) μg mL^−1; in data set [5] (setting [8]), 37.1 (28.7-43.4) μg mL^−1. For the same compound, the “Concentration at which nematicidal activity was observed” value (in the data set on Meloidogyne incognita (M. incognita); in [5] (T. semipenetrans)) was at least 300 µg/mL each time. Moreover, the EC50 was 56 µg/mL with Meloidogyne incognita (read-out: EC50 (concentration required to immobilize 50% of nematode population), M. incognita); 56.3 µg/mL with Meloidogyne incognita (read-out: EC50 (effective concentration causing 50% reversible nematode paralysis, temporary quiescence), M. incognita, in vitro, 24 h exposure); 61.3 µg/mL in the data set on Meloidogyne incognita (J2 juveniles of M. incognita (RKN), 48 h exposure, read-out: EC50 (95% confidence interval), reversible paralysis); 76.3 µg/mL in the data set on Meloidogyne incognita (J2 juveniles of M. incognita (RKN), 72 h exposure, read-out: EC50 (95% confidence interval), reversible paralysis); over 400 µg/mL with Steinernema carpocapsae (Steinernema carpocapsae, read-out: EC50 (effective concentration causing 50% reversible nematode paralysis, temporary quiescence)); over 400 µg/mL with H. sonorensis. Besides, the EC50 was over 400 µg/mL in the data set on H. bacteriophora; 37 µg/mL in data set [5] (read-out: EC50 (concentration required to immobilize 50% of nematode population), T. semipenetrans); 37.1 µg/mL in [5] (read-out: EC50 (effective concentration causing 50% reversible nematode paralysis, temporary quiescence), T. semipenetrans, in vitro, 24 h exposure); 66.2 µg/mL in data set [5] (J2 juveniles of T. semipenetrans, 48 h exposure, read-out: EC50 (95% confidence interval), reversible paralysis); 68.3 µg/mL in data set [5] (J2 juveniles of T. semipenetrans, 72 h exposure, read-out: EC50 (95% confidence interval), reversible paralysis); 159 µg/mL (≈ 1360 µM) in the data set on Caenorhabditis elegans (Caenorhabditis elegans, read-out: EC50 (effective concentration causing 50% reversible nematode paralysis, temporary quiescence)). In addition, the EC50 in the data set on Rhabditis blumi (Metarhabditis blumi, read-out: EC50 (effective concentration causing 50% reversible nematode paralysis, temporary quiescence)) stood at 37 µg/mL (≈ 316 µM). For the same compound, the LC50 in the data set on Meloidogyne incognita (setting [7]) turned out to be 307 µg/mL; with Meloidogyne incognita (M. incognita, ID alone and SM mixtures, exposure time not given, read-out: LC50) it was 307 µg/mL; in [5] (setting [9]), 388 µg/mL; in [5] (T. semipenetrans, ID alone and SM mixtures, exposure time not given, read-out: LC50), 388 µg/mL. For the same compound, the “% Inh. MCF-7” value in data set [1] worked out at 5.31%. Besides, the “% Inh. HFF” value in data set [2] amounted to 4.64%. Moreover, the “% Inh. NCI-H460” value in [4] (MTT, after 72 hours) came out at 30.5%. Besides, the “Toxicity against NCI-H460” value in [4] (at 200 uM) is listed as 30.5%. Further, the “% Inh. SF-268” value in data set [3] is 20.2%.

For the compound `COc1cccc2c1C(=O)c1c(O)c3c(c(O)c1C2=O)C[C@@](O)(C(=O)CO)C[C@@H]3O[C@H]1C[C@H](N)[C@H](O)[C@H](C)O1` [Doxorubicin, reference compound], the inhibition at 1 µM amounted to 64.1% in data set [1] (Homo sapiens, MCF7, after 72 hours, Conc. 1 μM (+ control), read-out: % Inh. MCF-7); 64.9% in data set [2] (Homo sapiens, HFF, Conc. 1 μM (+ control)); 97.2% in data set [4] (Homo sapiens, NCI-H460, MTT, after 72 hours, Conc. 1 μM (+ control), read-out: % Inh. NCI-H460); 86.7% in data set [3] (Homo sapiens, SF-268, after 72 hours, Conc. 1 μM (+ control), read-out: % Inh. SF-268).

With `O=C(O)CC/C=C/c1ccccc1` [PPA, (4E)-5-phenylpent-4-enoic acid], the “LC50 (lethal concentration causing 50% nematode death)” value in the data set on Meloidogyne incognita (setting [6]) is 44.4 (38.8-48.6) μg mL^−1; with Steinernema carpocapsae (S. carpocapsae, in vitro), >400^e μg mL^−1; in [5] (setting [8]) it was 66.3 (50.7-73.4) μg mL^−1; in the data set on Caenorhabditis elegans (C. elegans, in vitro), 278 µg/mL (≈ 1580 µM); with Rhabditis blumi (R. blumi, in vitro), 346 µg/mL (≈ 1960 µM). Also, the “Concentration at which nematicidal activity was observed” value (in the data set on Meloidogyne incognita (M. incognita); in [5] (T. semipenetrans)) was at least 40 µg/mL throughout. For the same compound, the LC50 in the data set with Meloidogyne incognita (read-out: LC50 (concentration required to kill 50% nematode population), M. incognita, 24 h of exposure) was 44 µg/mL; with Meloidogyne incognita (read-out: LC50 (lethal concentration causing 50% nematode death), M. incognita, in vitro, 24 h exposure), 44.4 µg/mL; in the data set with Meloidogyne incognita (setting [7]), 44.4 µg/mL; with Meloidogyne incognita (J2 juveniles of M. incognita (RKN), 48 h exposure, read-out: LC50 (95% confidence interval)) it was 42 µg/mL; in the data set with Meloidogyne incognita (J2 juveniles of M. incognita (RKN), 72 h exposure, read-out: LC50 (95% confidence interval)) it was 38.9 µg/mL; in the data set “in vitro” (H. bacteriophora), over 400 µg/mL. The LC50 was over 400 µg/mL in the data set “in vitro” (H. sonorensis, whole H. sonorensis nematodes (non-target entomopathogenic)); 66 µg/mL in data set [5] (read-out: LC50 (concentration required to kill 50% nematode population), T. semipenetrans, 24 h of exposure); 66.3 µg/mL in [5] (read-out: LC50 (lethal concentration causing 50% nematode death), T. semipenetrans, in vitro, 24 h exposure); 66.3 µg/mL in data set [5] (setting [9]); 59.8 µg/mL in data set [5] (J2 juveniles of T. semipenetrans (CN), 48 h exposure, read-out: LC50 (95% confidence interval)); 42.2 µg/mL in [5] (J2 juveniles of T. semipenetrans (CN), 72 h exposure, read-out: LC50 (95% confidence interval)). Moreover, the “% Inh. MCF-7” value in data set [1] was −5.35%. Moreover, the “% Inh. HFF” value in data set [2] is recorded as 22.6%. The “% Inh. NCI-H460” value in data set [4] (MTT, after 72 hours) is 3.97%. In data set [3], the “% Inh. SF-268” value is on record as 7.76%.
